Reference: ChEMBL document CHEMBL1129185, “The design and synthesis of non-peptide ligands with affinity and selectivity for tachykinin receptors” (Bioorg Med Chem Lett, 1996)
Peptide text beside a SMILES is read from it.

Legend:
Substance-P receptor [1] = target: T1, Substance-P receptor (Homo sapiens, UniProt P25103); experiment: Inhibitory activity against binding of [125I]Bolton-Hunter SP to tachykinin NK-1 receptor in human lymphoma IM9 cells.; type: cell-based, IM-9
[2] = target: T2, Neuromedin-K receptor (Cavia porcellus) (UniProt P30098); experiment: Inhibitory activity against binding of [125I][MePhe7]-NKB SP to tachykinin NK-3 receptor in guinea pig cortical membranes at concentration 10 uM; type: cell membranes
T2 sequence (whole entry): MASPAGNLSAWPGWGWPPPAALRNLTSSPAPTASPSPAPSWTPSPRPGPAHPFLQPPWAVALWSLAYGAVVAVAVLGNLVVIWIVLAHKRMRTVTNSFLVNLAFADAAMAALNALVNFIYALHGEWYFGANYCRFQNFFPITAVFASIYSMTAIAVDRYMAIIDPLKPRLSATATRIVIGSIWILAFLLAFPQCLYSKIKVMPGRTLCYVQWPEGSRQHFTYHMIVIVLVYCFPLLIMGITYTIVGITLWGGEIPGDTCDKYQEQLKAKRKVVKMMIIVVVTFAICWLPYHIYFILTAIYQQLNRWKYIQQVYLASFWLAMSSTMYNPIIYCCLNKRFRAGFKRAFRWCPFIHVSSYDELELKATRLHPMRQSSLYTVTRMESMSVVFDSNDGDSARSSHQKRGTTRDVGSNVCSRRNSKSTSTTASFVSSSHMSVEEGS

Substance-P receptor [3] = target: T1, Substance-P receptor; experiment: Inhibitory activity against binding of [125I]Bolton-Hunter SP to tachykinin NK-1 receptor in human lymphoma IM9 cells at concentration 10 uM; type: cell-based; conditions: IM-9
Neuromedin-K receptor = target: T3, Neuromedin-K receptor (Cavia porcellus, UniProt P30098); experiment: Inhibitory activity against binding of [125I][MePhe7]-NKB SP to tachykinin NK-3 receptor in guinea pig cortical membranes.; type: cell membranes
T3 sequence (P30098 whole entry): T2 sequence (whole entry)

Substance-P receptor [4] = target: T1, Substance-P receptor; experiment: Inhibitory activity against binding of [125I]Bolton-Hunter SP to tachykinin NK-1 receptor in human lymphoma IM9 cells; type: cell-based, IM-9

T1 sequence (P25103 whole entry): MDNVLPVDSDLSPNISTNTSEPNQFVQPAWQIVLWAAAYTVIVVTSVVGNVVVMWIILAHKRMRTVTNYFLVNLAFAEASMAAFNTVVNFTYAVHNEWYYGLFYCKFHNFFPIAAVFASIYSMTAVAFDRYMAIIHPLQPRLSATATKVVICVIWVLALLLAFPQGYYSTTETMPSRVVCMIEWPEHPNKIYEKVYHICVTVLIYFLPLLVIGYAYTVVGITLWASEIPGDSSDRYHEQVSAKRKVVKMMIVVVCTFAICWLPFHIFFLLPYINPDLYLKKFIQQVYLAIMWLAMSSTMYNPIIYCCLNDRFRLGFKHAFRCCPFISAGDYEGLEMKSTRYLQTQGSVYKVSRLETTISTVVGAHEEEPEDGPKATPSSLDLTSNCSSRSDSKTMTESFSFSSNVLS

IC50 (Substance-P receptor [1]) [µM] | inhibition [2] [%] | inhibition (Substance-P receptor [3]) [%] | IC50 (Neuromedin-K receptor) [nM] | IC50 (Substance-P receptor [4]) [µM] | SMILES
3.5 | < 10 | – | – | – | O=C1C(Cc2c[nH]c3ccccc23)OCCN1Cc1ccccc1 (configuration not stated)
– | – | < 10 | 4090 | – | O=C1C(Cc2ccccc2)OCCN1Cc1ccccc1 (configuration not stated)
– | < 10 | – | – | 4.2 | NC(=O)[C@H](Cc1ccccc1)NC(=O)[C@H](Cc1c[nH]c2ccccc12)NC(=O)OCc1ccccc1 (HELM PEPTIDE1{[O=C(OCc1ccccc1)[*:2]].W.F.[am]}$$$$V2.0)
– | – | – | 717 | – | CSCC[C@H](NC(=O)[C@H](CC(C)C)NC(=O)CNC(=O)[C@H](Cc1ccccc1)NC(=O)[C@H](Cc1ccccc1)NC(=O)[C@H](CCC(N)=O)NC(=O)[C@H](CCC(N)=O)NC(=O)[C@@H]1CCCN1C(=O)[C@H](CCCCN)NC(=O)[C@@H]1CCCN1C(=O)[C@@H](N)CCCN=C(N)N)C(N)=O [SUBSTANCE P]
